Assays:
Assay in all cases: preemergence treatment in the greenhouse, % damage
[1] = test system: Alopec. myosur.; assay type: in vivo
Source text: (§1) The vessels employed were plastic flowerpots having a volume of 300 cm^3; the substrate was a sandy loam containing about 1.5% humus. The seeds of the test plants (see Table 1) were sown shallow, and separated according to species. In the case of Cyperus esculentus, pregerminated tubers were planted. In the preemergence treatment, the active ingredients were then immediately applied to the surface of the soil. They were suspended or emulsified in water as the vehicle, and sprayed through atomizing nozzles. After the agents had been applied, the vessels were lightly sprinkler-irrigated to set germination and growth going, and to activate the chemical agents. The vessels were then covered with transparent plastic hoods until the plants had taken root. This cover ensured uniform germination of the test plants (to the extent that this was not impaired by the chemicals), and prevented readily volatile substances from evaporating.
(§2) For postemergence treatment, the plants were first grown to a height of from 3 to 10 cm, depending on their habit, before treated. Hoods were not placed on the pots. The experiments were set up in the greenhouse, hotter areas (25° to 40° C.) being preferred for heat-loving species, and 15° to 30° C. for plants from moderate climates. The experiments were carried out for from 4 to 6 weeks. During this period the plants were tended and their reaction to the various treatments was assessed. The following tables contain the substances investigated, the application rates in kg/ha of active ingredient, and the test plant species. Assessments were made on a 0 to 100 scale, 0 denoting no damage or normal emergence, and 100 denoting no emergence or complete destruction of at least the visible plant parts.

[2] = test system: Echin. c.g.; assay type: in vivo
Source text: as §1, §2

[3] = test system: Setaria spp.; assay type: in vivo
Source text: as §1, §2

[4] = test system: Sorgh. halep.; assay type: in vivo
Source text: as §1, §2

[5] = test system: Cyp. diff.; assay type: in vivo
Source text: as §1, §2

[6] = test system: Amar. retro.; assay type: in vivo
Source text: as §1, §2

[7] = test system: Bromus spp.; assay type: in vivo
Source text: as §1, §2

[8] = test system: Beta vulg.; assay type: in vivo, Beta vulgaris
Source text: as §1, §2

[9] = test system: Glyc. max; assay type: in vivo, Glycine max
Source text: as §1, §2

[10] = test system: Matric. spp.; assay type: in vivo
Source text: as §1, §2

SMILES	% damage ([1]; 2.0 kg/ha)	% damage ([2]; 2.0 kg/ha)	% damage ([3]; 2.0 kg/ha)	% damage ([4]; 2.0 kg/ha)	% damage ([5]; 2.0 kg/ha)	% damage ([6]; 2.0 kg/ha)	% damage ([1]; 1.0 kg/ha)	% damage ([2]; 1.0 kg/ha)	% damage ([3]; 1.0 kg/ha)	further results
Cc1cccc(N(Cn2cncn2)C(=O)CCl)c1C [Compound 139]	70%	90%	30%	50%	90%	40%				
CCc1cccc(CC)c1N(Cn1ccc(C)n1)C(=O)CCl [Compound 70]										% damage ([7]; 0.25 kg/ha): 100%; % damage ([4]; 0.25 kg/ha): 75%; % damage ([6]; 0.25 kg/ha): 100%
CCc1ccccc1N(Cn1nc(C)cc1C)C(=O)CCl [Compound 36]							100%	95%	95%	% damage ([1]; 0.5 kg/ha): 90%; % damage ([2]; 0.5 kg/ha): 80%; % damage ([3]; 0.5 kg/ha): 90%; % damage ([4]; 0.5 kg/ha): 40%; % damage ([4]; 1.0 kg/ha): 40%; % damage ([6]; 0.5 kg/ha): 95%; % damage ([6]; 1.0 kg/ha): 95%
Cc1cccc(N(Cn2cccn2)C(=O)CCl)c1C [Compound 17]	50%	100%	90%	75%	100%	90%				
Cc1cc(C)c(N(Cn2cccn2)C(=O)CCl)c(C)c1 [Compound 13]	80%	100%	90%	80%	90%	100%				
Cc1cc(C)n(CN(C(=O)CCl)c2c(C)cccc2C(C)C)n1 [Compound 42]							95%	100%	100%	% damage ([4]; 1.0 kg/ha): 90%; % damage ([5]; 1.0 kg/ha): 100%; % damage ([6]; 1.0 kg/ha): 100%
CCc1cccc(CC)c1N(Cn1nc(C)nc1C)C(=O)CCl [Compound 162]	95%	100%	100%	95%	100%	100%				
Cc1cccc(C)c1N(Cn1cc(Cl)cn1)C(=O)CCl	100%	100%	100%				95%	100%	95%	% damage ([8]; 1.0 kg/ha): 3%; % damage ([8]; 2.0 kg/ha): 13%; % damage ([9]; 1.0 kg/ha): 5%; % damage ([9]; 2.0 kg/ha): 20%; % damage ([10]; 1.0 kg/ha): 75%; % damage ([10]; 2.0 kg/ha): 80%; % damage ([7]; 1.0 kg/ha): 92%; % damage ([7]; 2.0 kg/ha): 95%
CC(C)c1cccc(C(C)C)c1N(Cn1cccn1)C(=O)CCl [Compound 11]	90%	100%	80%	70%	100%	90%				
CCc1cccc(CC)c1N(Cn1nc(C)c(Cl)c1C)C(=O)CCl [Compound 108]	70%	100%	90%	60%	100%	100%				
Cc1ccc(C)c(N(Cn2nc(C)cc2C)C(=O)CCl)c1 [Compound 52]	60%	95%	90%	60%	100%	100%				
CCc1cccc(C)c1N(Cn1cc(Cl)cn1)C(=O)CCl							90%	100%	85%	% damage ([8]; 1.0 kg/ha): 0%; % damage ([10]; 1.0 kg/ha): 60%; % damage ([7]; 1.0 kg/ha): 90%
CC(C)c1ccccc1N(Cn1cccn1)C(=O)CCl [Compound 4]	95%	100%	90%	65%	90%	95%				
Cc1cccc(C(C)C)c1N(Cn1cncn1)C(=O)CCl [Compound 131]	70%	100%	100%	80%	100%	80%				
Cc1cccc(C(C)C)c1N(Cn1cccn1)C(=O)CCl [Compound 9]	100%	100%	100%	90%	100%	100%				
Cc1cc(C)c(N(Cn2nc(C)cc2C)C(=O)CCl)c(C)c1 [Compound 46]							60%	100%	100%	% damage ([4]; 1.0 kg/ha): 80%; % damage ([5]; 1.0 kg/ha): 100%; % damage ([6]; 1.0 kg/ha): 90%
Cc1ccn(CN(C(=O)CCl)c2c(C)cccc2C)n1 [Compound 67]										% damage ([7]; 0.25 kg/ha): 100%; % damage ([4]; 0.25 kg/ha): 95%; % damage ([6]; 0.25 kg/ha): 100%
Cc1cc(C)n(CN(C(=O)CCl)c2c(C(C)C)cccc2C(C)C)n1 [Compound 44]	80%	90%	90%	40%	100%	80%				
Cc1cc(C)n(CN(C(=O)CCl)c2cccc(C)c2C)n1 [Compound 50]							90%	100%	100%	% damage ([4]; 1.0 kg/ha): 70%; % damage ([5]; 1.0 kg/ha): 100%; % damage ([6]; 1.0 kg/ha): 100%
CCc1cccc(C)c1N(Cn1cc(C)cn1)C(=O)CCl										% damage ([2]; 3.0 kg/ha): 100%
Cc1cc(C)n(CN(C(=O)CCl)c2ccccc2C(C)C)n1 [Compound 37]							30%	100%	100%	% damage ([4]; 1.0 kg/ha): 80%; % damage ([5]; 1.0 kg/ha): 100%; % damage ([6]; 1.0 kg/ha): 100%
CCc1cccc(CC)c1N(Cn1cccn1)C(=O)CCl [Compound 8]										% damage ([7]; 0.25 kg/ha): 100%; % damage ([4]; 0.25 kg/ha): 85%; % damage ([6]; 0.25 kg/ha): 95%

— patent publication US4593104A, “2-halo-N-(azole-1-yl-methyl)-substituted acetanilides” (BASF Aktiengesellschaft, priority 1976, dated 1986)
